Measured values reported in PubChem BioAssay (NCI).
Where “and” joins values, the source holds several entries; their conditions need not be identical. Identical values can stand only once.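 Cultured in 96-well plates, cells were exposed to test compound for 48 hours across five concentrations. GI50 = concentration required for 50% inhibition of growth. The concentration for full growth arrest is given as TGI.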

Columns and labels:
Test in all cases: NCI anticancer screen, dose series, 48 h; in the data active means GI50 below about 0.43 µM; inactive means the rest
MALME-3M melanoma = tested on: MALME-3M melanoma
A498 renal = tested on: A498 renal
KM12 colon = tested on: KM12 colon
SR leukemia = tested on: SR leukemia
UACC-62 melanoma = tested on: UACC-62 melanoma
SK-OV-3 ovarian = tested on: SK-OV-3 ovarian
NCI/ADR-RES ovarian = tested on: NCI/ADR-RES ovarian
SN12C renal = tested on: SN12C renal
CAKI-1 renal = tested on: CAKI-1 renal
U251 CNS = tested on: U251 CNS
OVCAR-8 ovarian = tested on: OVCAR-8 ovarian
SK-MEL-28 melanoma = tested on: SK-MEL-28 melanoma
HOP-92 NSCLC = tested on: HOP-92 NSCLC
SF-268 CNS = tested on: SF-268 CNS
LOX IMVI melanoma = tested on: LOX IMVI melanoma
TK-10 renal = tested on: TK-10 renal
OVCAR-4 ovarian = tested on: OVCAR-4 ovarian
UO-31 renal = tested on: UO-31 renal
MCF7 breast = tested on: MCF7 breast
CCRF-CEM leukemia = tested on: CCRF-CEM leukemia
IGROV1 ovarian = tested on: IGROV1 ovarian
RXF 393 renal = tested on: RXF 393 renal
RPMI-8226 leukemia = tested on: RPMI-8226 leukemia
ACHN renal = tested on: ACHN renal
786-0 renal = tested on: 786-0 renal
PC-3 prostate = tested on: PC-3 prostate
NCI-H23 lung = tested on: NCI-H23 lung
SW-620 colon = tested on: SW-620 colon
NCI-H226 lung = tested on: NCI-H226 lung
NCI-H522 lung = tested on: NCI-H522 lung
OVCAR-3 ovarian = tested on: OVCAR-3 ovarian
MDA-N = tested on: MDA-N
A549 NSCLC = tested on: A549 NSCLC
SF-539 CNS = tested on: SF-539 CNS
SNB-75 CNS = tested on: SNB-75 CNS
OVCAR-5 ovarian = tested on: OVCAR-5 ovarian
K-562 leukemia = tested on: K-562 leukemia
MDA-MB-435 = tested on: MDA-MB-435
HS 578T breast = tested on: HS 578T breast
HL-60(TB) leukemia = tested on: HL-60(TB) leukemia
COLO 205 colon = tested on: COLO 205 colon
HCT-15 colon = tested on: HCT-15 colon
MOLT-4 leukemia = tested on: MOLT-4 leukemia
SK-MEL-5 melanoma = tested on: SK-MEL-5 melanoma
BT-549 breast = tested on: BT-549 breast
NCI-H460 lung = tested on: NCI-H460 lung
SK-MEL-2 melanoma = tested on: SK-MEL-2 melanoma
HT29 colon = tested on: HT29 colon
HCT-116 colon = tested on: HCT-116 colon
DU-145 prostate = tested on: DU-145 prostate
SNB-19 CNS = tested on: SNB-19 CNS
SF-295 CNS = tested on: SF-295 CNS
HOP-62 NSCLC = tested on: HOP-62 NSCLC
T-47D breast = tested on: T-47D breast
UACC-257 melanoma = tested on: UACC-257 melanoma
EKVX NSCLC = tested on: EKVX NSCLC
M14 melanoma = tested on: M14 melanoma
MDA-MB-231 breast = tested on: MDA-MB-231 breast
HCC-2998 colon = tested on: HCC-2998 colon

NC(Cc1cnc(I)[nH]1)C(=O)O (stereo unspecified)
72900 nM: TGI (NCI-H522 lung)
> 100000 nM: TGI (A498 renal) | TGI (KM12 colon) | TGI (SR leukemia) | TGI (UACC-62 melanoma) | TGI (SK-OV-3 ovarian) | TGI (NCI/ADR-RES ovarian) | TGI (SN12C renal) | TGI (CAKI-1 renal) | TGI (U251 CNS) | TGI (OVCAR-8 ovarian) | TGI (SK-MEL-28 melanoma) | TGI (SF-268 CNS) | TGI (LOX IMVI melanoma) | TGI (TK-10 renal) | TGI (OVCAR-4 ovarian) | TGI (UO-31 renal) | TGI (MCF7 breast) | TGI (CCRF-CEM leukemia) | TGI (IGROV1 ovarian) | TGI (RXF 393 renal) | TGI (RPMI-8226 leukemia) | TGI (ACHN renal) | TGI (786-0 renal) | TGI (PC-3 prostate) | TGI (NCI-H23 lung) | TGI (SW-620 colon) | TGI (NCI-H226 lung) | TGI (OVCAR-3 ovarian) | TGI (MDA-N) | TGI (A549 NSCLC) | TGI (SF-539 CNS) | TGI (SNB-75 CNS) | TGI (OVCAR-5 ovarian) | TGI (K-562 leukemia) | TGI (MDA-MB-435) | TGI (COLO 205 colon) | TGI (HCT-15 colon) | TGI (MOLT-4 leukemia) | TGI (SK-MEL-5 melanoma) | TGI (BT-549 breast) | TGI (NCI-H460 lung) | TGI (SK-MEL-2 melanoma) | TGI (HT29 colon) | TGI (HCT-116 colon) | TGI (DU-145 prostate) | TGI (SNB-19 CNS) | TGI (SF-295 CNS) | TGI (HOP-62 NSCLC) | TGI (T-47D breast) | TGI (UACC-257 melanoma) | TGI (EKVX NSCLC) | TGI (M14 melanoma) | TGI (MDA-MB-231 breast) | TGI (HCC-2998 colon)
6410 nM: TGI (HL-60(TB) leukemia)
75200 nM: TGI (MALME-3M melanoma)
82900 nM: TGI (HOP-92 NSCLC)
63800 nM: TGI (HS 578T breast)

C=C1C(C(O)C[C@H](C)C2O[C@@]3(CCCCO3)CCC2C)O[C@@H]2CCC3(CCC(/C=C/[C@@H](C)C4CC(C)=CC5(O4)O[C@H](C[C@](C)(O)C(=O)O)CCC5O)O3)OC2[C@@H]1O (stereo partly specified)
8.56 nM: TGI (SF-268 CNS)
124 nM and 17.4 nM: TGI (EKVX NSCLC)
31.4 nM and 17.3 nM: TGI (RPMI-8226 leukemia)
15.5 nM and 7.96 nM: TGI (SK-MEL-5 melanoma)
137 nM and 37.7 nM: TGI (DU-145 prostate)
17.5 nM and 9.41 nM: TGI (SF-539 CNS)
163 nM and 303 nM: TGI (K-562 leukemia)
255 nM and 258 nM: TGI (A549 NSCLC)
32.3 nM: TGI (NCI-H23 lung)
185 nM and 64.1 nM: TGI (T-47D breast)
34.2 nM and 23.3 nM: TGI (UACC-257 melanoma)
252 nM and 102 nM: TGI (SW-620 colon)
202 nM and 36.2 nM: TGI (TK-10 renal)
86.7 nM and 25.9 nM: TGI (SF-295 CNS)
> 1000 nM and 778 nM: TGI (NCI/ADR-RES ovarian)
61.5 nM and 53.5 nM: TGI (MOLT-4 leukemia)
23.9 nM and 27.5 nM: TGI (OVCAR-5 ovarian)
56.1 nM and 39.6 nM: TGI (HT29 colon)
203 nM and 55 nM: TGI (HCT-15 colon)
89.8 nM and 62.7 nM: TGI (OVCAR-4 ovarian)
active: GI50 (MALME-3M melanoma) 9.97 nM | GI50 (A498 renal) 31.5 nM | GI50 (KM12 colon) 6.28 nM | GI50 (SR leukemia) 54.1 nM | GI50 (UACC-62 melanoma) 4.29 nM | GI50 (SK-OV-3 ovarian) 10.6 nM | GI50 (NCI/ADR-RES ovarian) 111 nM | GI50 (SN12C renal) 20.2 nM | GI50 (CAKI-1 renal) 16.8 nM | GI50 (U251 CNS) 8.08 nM | GI50 (OVCAR-8 ovarian) 26.5 nM | GI50 (SK-MEL-28 melanoma) 4.33 nM | GI50 (HOP-92 NSCLC) 13 nM | GI50 (LOX IMVI melanoma) 5.88 nM | GI50 (TK-10 renal) 67 nM | GI50 (OVCAR-4 ovarian) 23.1 nM | GI50 (UO-31 renal) 96 nM | GI50 (MCF7 breast) 19.9 nM | GI50 (CCRF-CEM leukemia) 5.78 nM | GI50 (IGROV1 ovarian) 32.2 nM | GI50 (RXF 393 renal) 0.277 nM | GI50 (RPMI-8226 leukemia) 4.22 nM | GI50 (ACHN renal) 25.9 nM | GI50 (786-0 renal) 10.8 nM | GI50 (PC-3 prostate) 12.6 nM | GI50 (SW-620 colon) 23.1 nM | GI50 (NCI-H522 lung) 6.29 nM | GI50 (OVCAR-3 ovarian) 12.1 nM | GI50 (MDA-N) 5.35 nM | GI50 (A549 NSCLC) 47.7 nM | GI50 (SF-539 CNS) 4.56 nM | GI50 (SNB-75 CNS) 4.7 nM | GI50 (OVCAR-5 ovarian) 7.06 nM | GI50 (MDA-MB-435) 7.36 nM | GI50 (HS 578T breast) 2.65 nM | GI50 (HL-60(TB) leukemia) 1.62 nM | GI50 (HCT-15 colon) 46.1 nM | GI50 (MOLT-4 leukemia) 24.1 nM | GI50 (BT-549 breast) 3.37 nM | GI50 (NCI-H460 lung) 6.31 nM | GI50 (SK-MEL-2 melanoma) 3.53 nM | GI50 (HT29 colon) 21 nM | GI50 (HCT-116 colon) 5.57 nM | GI50 (DU-145 prostate) 23.1 nM | GI50 (SNB-19 CNS) 4.86 nM | GI50 (SF-295 CNS) 7.48 nM | GI50 (HOP-62 NSCLC) 7.4 nM and 3.98 nM | GI50 (T-47D breast) 13.1 nM | GI50 (UACC-257 melanoma) 13.7 nM | GI50 (EKVX NSCLC) 19.2 nM | GI50 (M14 melanoma) 2.77 nM | GI50 (MDA-MB-231 breast) 11.7 nM
15.1 nM and 6.35 nM: TGI (SK-MEL-28 melanoma)
9.85 nM and 6.27 nM: TGI (M14 melanoma)
11.5 nM and 27.6 nM: TGI (BT-549 breast)
39.5 nM and 4.2 nM: TGI (SNB-75 CNS)
44.1 nM and 20.7 nM: TGI (MCF7 breast)
35.2 nM and 19.1 nM: TGI (PC-3 prostate)
38.6 nM and 9.11 nM: TGI (HOP-92 NSCLC)
7.8 nM and 16 nM: TGI (HL-60(TB) leukemia)
28.8 nM and 5.39 nM: TGI (NCI-H522 lung)
101 nM and 61.8 nM: TGI (ACHN renal)
137 nM and 64.1 nM: TGI (IGROV1 ovarian)
11.2 nM and 8.49 nM: TGI (SK-MEL-2 melanoma)
15.8 nM and 15.1 nM: TGI (SNB-19 CNS)
31.6 nM and 9.27 nM: TGI (OVCAR-3 ovarian)
27.2 nM and 34.3 nM: TGI (786-0 renal)
27.1 nM and 19 nM: TGI (HS 578T breast)
8.28 nM: TGI (NCI-H226 lung)
33.2 nM and 43.7 nM: TGI (NCI-H460 lung)
25.5 nM and 10.9 nM: TGI (HOP-62 NSCLC)
9.25 nM: TGI (HCC-2998 colon)
238 nM and 101 nM: TGI (UO-31 renal)
16.1 nM and 8.61 nM: TGI (UACC-62 melanoma)
40.9 nM and 93.1 nM: TGI (CCRF-CEM leukemia)
42.1 nM and 34.8 nM: TGI (SK-OV-3 ovarian)
52.3 nM and 40.9 nM: TGI (CAKI-1 renal)
